Test: Solubility in water and solvents
Type: physicochemical
Conditions: for Solubilités : éthanol: ethanol; for Solubilités : propylène glycol: propylene glycol; for Solubilités : eau: result in words

CCOC(=O)c1ccc(-c2ccccc2Cl)cc1 [Exemple 1, chloro-2' biphényl-4 carboxylate d'éthyle]
Solubilités : diméthyl sulfoxyde (DMSO): 20% | Solubilités : éthanol: 5% | Solubilités : propylène glycol: 1% | Solubilités : eau (water): insoluble

CC(C)OC(=O)c1ccc(-c2ccccc2Cl)cc1 [Exemple 2, chloro-2' biphényl-4 carboxylate d'isopropyle]
Solubilités : diméthyl sulfoxyde (DMSO): 10% | Solubilités : éthanol: 2% | Solubilités : propylène glycol: 1% | Solubilités : eau (water): insoluble

CCCCCCCCOC(=O)c1ccc(-c2ccccc2Cl)cc1 [Exemple 3, chloro-2' biphényl-4 carboxylate de n-octyle]
Solubilités : diméthyl sulfoxyde (DMSO): 20% | Solubilités : éthanol: 5% | Solubilités : propylène glycol: 0,1% | Solubilités : eau (water): insoluble

CCCCCCCCCCCCCCCCOC(=O)c1ccc(-c2ccccc2Cl)cc1 [Exemple 4, chloro-2' biphényl-4 carboxylate de n-hexadecyle]
Solubilités : DMA (DMA): 1% | Solubilités : diméthyl sulfoxyde (DMSO): 0,1% | Solubilités : éthanol: 0,5% | Solubilités : propylène glycol: 0,1% | Solubilités : eau (water): insoluble

CC1CC(OC(=O)c2ccc(-c3ccccc3Cl)cc2)CC(C)(C)C1 (stereo not drawn) [Exemple 5, chloro-2^1 biphényl-4 carboxylatede triméthyl-3-3-5 clohexyle]
Solubilités : diméthyl sulfoxyde (DMSO): 20% | Solubilités : éthanol: 2% | Solubilités : propylène glycol: 0,1% | Solubilités : eau (water): insoluble

O=C(OCc1ccccc1)c1ccc(-c2ccccc2Cl)cc1 [Exemple 6, chloro-2' biphényl-4 carboxylate de benzyle]
Solubilités : diméthyl sulfoxyde (DMSO): 20% | Solubilités : éthanol: 2% | Solubilités : propylène glycol: 0,2% | Solubilités : eau (water): Insoluble

CN(C)CCOC(=O)c1ccc(-c2ccccc2Cl)cc1 [Exemple 9, chloro-2' biphényl-4 carboxylate de diméthylamino-2 éthyle, chlorhydrate]
Solubilités : diméthyl sulfoxyde (DMSO): 12% | solubility (water, read-out: Solubilités : eau): 100 mg/mL

O=C(OCc1cccnc1)c1ccc(-c2ccccc2Cl)cc1 [Exemple 10, chloro-2' biphényl-4 carboxylate de pyridyl-3 méthyle, chlorhydrate]
Solubilités : diméthyl sulfoxyde (DMSO): 12% | Solubilités : propylène glycol: 0,1% | Solubilités : eau (water): insoluble

Reference: EP0057141A2, “Esters of halogene-biphenylcarboxylates, method of preparation and their application as medicines” (PIERRE FABRE S.A., priority 1981, dated 1982)
